Results as given in PubChem BioAssay (NCI).
Where “and” joins values, the source holds several entries; their conditions need not be identical. Equal values may be shown once.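 Each compound was tested at five concentrations against cells in 96-well plates for 48 hours. GI50 marks 50% less growth. TGI: concentration producing complete growth inhibition.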

Assays:
Test in all cases: NCI tumour cell line growth inhibition, 48 h
[1] = tested on: A549 NSCLC
[2] = tested on: BT-549 breast
[3] = tested on: HT29 colon
[4] = tested on: MDA-MB-231 breast
[5] = tested on: NCI-H522 lung
[6] = tested on: PC-3 prostate
[7] = tested on: SF-539 CNS
[8] = tested on: SK-MEL-28 melanoma
[9] = tested on: T-47D breast
[10] = tested on: U251 CNS

Row | Compound | GI50 [1] | TGI [1] | GI50 [2] | TGI [2] | GI50 [3] | TGI [3] | GI50 [4] | TGI [4] | GI50 [5] | TGI [5] | GI50 [6] | TGI [6] | GI50 [7] | TGI [7] | GI50 [8] | TGI [8] | GI50 [9] | TGI [9] | GI50 [10] | TGI [10]
1 | Cc1cc2cc3cc(C)c(N)cc3[n+](C)c2cc1N | 1 µM | 10.9 µM | 2.34 µM | 9.31 µM | 1.41 µM | 6 µM | 1.59 µM | 8.39 µM | 3.24 µM | 9.31 µM | 1.7 µM | 10.3 µM | 2.79 µM | 7.75 µM | 1.98 µM | 4.63 µM | 1.06 µM | 5.44 µM | 0.339 µM | 3.17 µM
2 | O=C(NCCNc1nccc(-c2c(-c3ccc(F)cc3)nc3sccn23)n1)c1ccccc1 | 4.11 µM | 96.7 µM | 14.3 µM | 34 µM | 4.31 µM | > 100 µM | 15.2 µM | 67.2 µM | 11.1 µM | 27.4 µM | 10.8 µM | 89.2 µM | 12.2 µM | 29.5 µM | 13.4 µM | 37.1 µM | 1.91 µM | 20.9 µM | 8.57 µM | > 100 µM
3 | N=c1n(Cc2ccccc2)c(N)cc(=O)n1Cc1ccccc1 | 1.19 µM | 2.56 µM | 2.65 µM | 10.3 µM | 3.81 µM | 12.8 µM | 7.45 µM | 42.5 µM | 0.503 µM | 2.42 µM | 2.74 µM | 19.9 µM | 1.96 µM | 4.25 µM | 3.58 µM | 11.7 µM | 3.01 µM | 12.4 µM | 3.32 µM | 11.7 µM
4 | Cc1c(-c2nnc(-c3ccc(F)cc3)o2)nnn1-c1ccnc2c(C(F)(F)F)cccc12 | 32.3 µM | > 100 µM | 21.6 µM | 58.1 µM | 34.4 µM | > 100 µM | 29 µM | > 100 µM | 84.7 µM | > 100 µM | 23.1 µM | > 100 µM | 26.5 µM | > 100 µM | 22.6 µM | 74.1 µM | 20 µM | > 100 µM | 30.4 µM | > 100 µM
5 | O=S(=O)(CCNCc1ccc(-c2ccc3ncnc(Nc4ccc(OCc5cccc(F)c5)c(Cl)c4)c3c2)o1)c1ccccc1 | > 25 µM | > 25 µM | > 25 µM | > 25 µM | > 25 µM | > 25 µM | > 25 µM | > 25 µM | > 19.5 µM | > 25 µM | > 25 µM | > 25 µM | > 25 µM | > 25 µM | > 25 µM | > 25 µM | 2.21 µM | > 25 µM | > 25 µM | > 25 µM
6 | S=C(c1ccc2c(c1)OCO2)N1CCN(c2cccc(Cl)c2)CC1 | 0.872 µM | > 40.2 µM | 9.32 µM | > 100 µM | 0.406 µM | > 100 µM | 5.73 µM | > 100 µM | 0.382 µM | – | 4.08 µM | > 100 µM | 1.1 µM | 8.13 µM | 1.02 µM | > 100 µM | 7.31 µM | > 100 µM | 0.61 µM | > 100 µM
7 | Brc1ccccc1C=NC12CC3CC(CC(C3)C1)C2 | – | > 100 µM | – | > 100 µM | – | > 100 µM | – | > 100 µM | – | > 100 µM | – | > 100 µM | – | > 100 µM | – | > 100 µM | – | > 100 µM | – | > 100 µM
8 | N#Cc1cc(N(CCCl)CCCl)c([N+](=O)[O-])cc1[N+](=O)[O-] | – | > 100 µM | – | > 100 µM | – | > 100 µM | – | > 100 µM | – | > 100 µM | – | > 100 µM | – | > 100 µM | – | > 100 µM | – | 57.2 µM | – | > 100 µM
9 | OCC1OC(n2cnc3c2NC=NC[C@H]3O)CC1O (stereo not given in full) | 412 µM and > 588 µM | 461 µM and > 588 µM | – | > 500 µM | 469 µM and > 588 µM | 474 µM and > 588 µM | – | > 500 µM | > 588 µM | 500 µM and > 588 µM | – | > 500 µM | 405 µM and > 588 µM | 461 µM and > 588 µM | > 588 µM | 500 µM and > 588 µM | – | 281 µM | > 588 µM | 500 µM and > 588 µM
10 | NC1=CC(=O)c2nc3ccccc3c3ccnc1c23 | 0.132 µM | > 21.6 µM | 6.9 µM | 27.9 µM | 3.52 µM | 21.2 µM | 16.9 µM | > 70.1 µM | 2.48 µM | 17.3 µM | 6.53 µM | > 48 µM | 3.99 µM | 57.1 µM | 11.8 µM | 32 µM | 7.85 µM | > 67.4 µM | 2.17 µM | > 45.2 µM
11 | CCN(CC)CCCC(Cc1ccccc1)Nc1c2ccc(Cl)cc2nc2ccc(OC)cc12 (stereo not given) | 2.79 µM | 7.29 µM | 2.2 µM | 5.17 µM | 1.41 µM | 3.57 µM | 1.65 µM | 3.7 µM | 1.81 µM | 3.57 µM | 5.22 µM | 19.1 µM | 1.7 µM | 3.33 µM | 1.84 µM | 3.59 µM | 1.97 µM | 4.16 µM | 1.56 µM | 3.11 µM
12 | COC(=O)/C(=N\NC(=S)NN)C(C(=O)OC)C(=O)C(=O)Nc1cccc(C(F)(F)F)c1 (stereo not given) | – | > 100 µM | – | > 100 µM | – | > 100 µM | – | > 100 µM | – | > 100 µM | – | > 100 µM | – | > 100 µM | – | > 100 µM | – | > 100 µM | – | > 100 µM
13 | COc1ccc2c(c1)/C(=C\c1c(Cl)n(C)c3ccccc13)C(=O)N2 | 0.818 µM | > 100 µM | 1.29 µM | 16.4 µM | 0.574 µM | > 100 µM | 0.399 µM | 9.53 µM | 0.726 µM | 7.14 µM | 1.33 µM | > 36.8 µM | 0.672 µM | 3.33 µM | 13.5 µM | > 55.4 µM | 3.02 µM | 31.4 µM | 0.817 µM | 10.5 µM
